The values that follow come from patent publication US11414424B2, “Cardiac sarcomere inhibitors” (Cytokinetics, Inc., priority 2018, dated 2022).

The test system of this assay is bovine cardiac myofibrils. The experiment in a line: Myofibril assay: PK/LDH-coupled steady-state ATPase activity of skinned bovine cardiac myofibrils. In kind it is biochemical. Conditions: Ca2+ activating to 75% of maximal rate. Put shortly: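 Steady-state ATPase of detergent-skinned bovine left-ventricular myofibrils (1 mg/mL), PK/LDH-coupled NADH read at 340 nm, in PIPES/MgCl2 buffer pH 6.8 with 50 μM ATP, 0.6 mM EGTA and CaCl2 set for 50% or 75% activation. Inhibition of activity measured.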
In the case of `CC(C)NC(=O)N1CCC2(C1)C(=O)N(C(C)C)CC(=O)N2Cc1ccc(C(F)(F)F)cc1` (stereo not shown) [Compound 117, N,9-diisopropyl-7,10-dioxo-6-(4-(trifluoromethyl)benzyl)-2,6,9-triazaspiro[4.5]decane-2-carboxamide], the “CDMF75 IC15” value came out at 16.6 µM. Regarding `CC(C)N1CC(=O)N(Cc2ccc(C(F)(F)F)cc2)C2(CCN(C(=O)NC3CC3)C2)C1=O` (stereo not shown) [Compound 118, N-cyclopropyl-9-isopropyl-7,10-dioxo-6-(4-(trifluoromethyl)benzyl)-2,6,9-triazaspiro[4.5]decane-2-carboxamide], the “CDMF75 IC15” value was 14.0 µM. As for `CCNC(=O)N1CCC2(C1)C(=O)N(C(C)C)CC(=O)N2Cc1ccc(Cl)cc1` (stereo not shown) [Compound 119, 6-(4-chlorobenzyl)-N-ethyl-9-isopropyl-7,10-dioxo-2,6,9-triazaspiro[4.5]-decane-2-carboxamide], the “CDMF75 IC15” value turned out to be 10.8 µM. For the compound `CC(C)N1CC(=O)N(Cc2ccc(Cl)cc2)C2(CCN(C(N)=O)C2)C1=O` (stereo not shown) [Compound 120, 6-(4-chlorobenzyl)-9-isopropyl-7,10-dioxo-2,6,9-triazaspiro[4.5]decane-2-carboxamide], the “CDMF75 IC15” value was determined as 18.3 µM. On to `CNC(=O)N1CCC2(C1)C(=O)N(C(C)C)CC(=O)N2Cc1ccc(Cl)cc1` (stereo not shown) [Compound 121, 6-(4-chlorobenzyl)-9-isopropyl-N-methyl-7,10-dioxo-2,6,9-triazaspiro[4.5]-decane-2-carboxamide], for which the “CDMF75 IC15” value was 9.9 µM. Turning to `CC(C)N1CC(=O)N(Cc2ccc(Cl)cc2)C2(CCN(C(=O)NC3CC3)C2)C1=O` (stereo not shown) [Compound 122, 6-(4-chlorobenzyl)-N-cyclopropyl-9-isopropyl-7,10-dioxo-2,6,9-triazaspiro[4.5]decane-2-carboxamide], the “CDMF75 IC15” value was found to be 20.5 µM.

Take `CC(C)N1CC(=O)N(Cc2ccc(Cl)cc2)C2(CCN(C(=O)Nc3ccccc3)C2)C1=O` (stereo not shown) [Compound 123, 6-(4-chlorobenzyl)-9-isopropyl-7,10-dioxo-N-phenyl-2,6,9-triazaspiro-[4.5]decane-2-carboxamide]: the “CDMF75 IC15” value came out at 11.2 µM. Consider `CC(C)N1CC(=O)N(Cc2ccc(Cl)cc2)C2(CCN(c3ccccc3)C2)C1=O` (stereo not shown) [Compound 127, 6-(4-chlorobenzyl)-9-isopropyl-2-phenyl-2,6,9-triazaspiro[4.5]decane-7,10-dione], for which the “CDMF75 IC15” value was 0.8 µM. For `CC(C)N1CC(=O)N(Cc2ccc(Cl)cc2)C2(CCN(c3ccccn3)C2)C1=O` (stereo not shown) [Compound 128, 6-(4-chlorobenzyl)-9-isopropyl-2-(pyridin-2-yl)-2,6,9-triazaspiro[4.5]decane-7,10-dione], the “CDMF75 IC15” value worked out at 0.8 µM. Take `Cc1cc(N2CCC3(C2)C(=O)N(C(C)C)CC(=O)N3Cc2ccc(Cl)cc2)ccn1` (stereo not shown) [Compound 129, 6-(4-chlorobenzyl)-9-isopropyl-2-(2-methyl-pyridin-4-yl)-2,6,9-triazaspiro-[4.5]decane-7,10-dione]: the “CDMF75 IC15” value worked out at 4.6 µM. Turning to `CC(C)N1CC(=O)N(C(C)c2ccc(C(F)(F)F)cc2)C2(CN(c3ccccn3)C2)C1=O` (stereo not shown) [Compound 138, 8-isopropyl-2-(pyridin-2-yl)-5-(1-(4-(trifluoromethyl)-phenyl)ethyl)-2,5,8-triazaspiro[3.5]nonane-6,9-dione], the “CDMF75 IC15” value is 7.0 µM. With `CNC(=O)N1CC2(C1)C(=O)N(C(C)C)CC(=O)N2C(C)c1ccc(C(F)(F)F)cc1` (stereo not shown) [Compound 139, 8-isopropyl-N-methyl-6,9-dioxo-5-(1-(4-(trifluoromethyl)phenyl)-ethyl)-2,5,8-triazaspiro-[3.5]nonane-2-carboxamide], the “CDMF75 IC15” value is 14.8 µM.

Regarding `CC(C)N1CC(=O)N(C(C)c2ccc(C(F)(F)F)cc2)C2(CN(c3ccccc3)C2)C1=O` (stereo not shown) [Compound 140, 8-isopropyl-2-phenyl-5-(1-(4-(trifluoromethyl)phenyl)-ethyl)-2,5,8-triazaspiro-[3.5]nonane-6,9-dione], the “CDMF75 IC15” value came out at 4.4 µM. The result for `CC(C)N1CC(=O)N([C@H](C)c2ccc(C(F)(F)F)cc2)C2(CN(c3ccccc3)C2)C1=O` [Compound 141, (R)-8-isopropyl-2-phenyl-5-(1-(4-(trifluoromethyl)-phenyl)ethyl)-2,5,8-triazaspiro[3.5]nonane-6,9-dione] reads 10.7 µM; that for `CC(C)N1CC(=O)N([C@@H](C)c2ccc(C(F)(F)F)cc2)C2(CN(c3ccccc3)C2)C1=O` [Compound 142, (S)-8-isopropyl-2-phenyl-5-(1-(4-(trifluoromethyl)phenyl)ethyl)-2,5,8-triazaspiro[3.5]nonane-6,9-dione], 0.8 µM. For the compound `CNC(=O)N1CC2(C1)C(=O)N(c1ccc(OC)cc1)CC(=O)N2Cc1ccc(C(F)(F)F)cc1` [Compound 145, 8-(4-methoxyphenyl)-N-methyl-6,9-dioxo-5-(4-(trifluoromethyl)benzyl)-2,5,8-triazaspiro[3.5]-nonane-2-carboxamide], the “CDMF75 IC15” value worked out at 3.8 µM.

For `CNC(=O)N1CC2(C1)C(=O)N(c1ccc(C#N)cc1)CC(=O)N2Cc1ccc(C(F)(F)F)cc1` [Compound 146, 8-(4-cyanophenyl)-N-methyl-6,9-dioxo-5-(4-(trifluoromethyl)benzyl)-2,5,8-triazaspiro[3.5]-nonane-2-carboxamide], the “CDMF75 IC15” value was determined as 1.2 µM. On to `CNC(=O)N1CC2(C1)C(=O)N(c1ccc(C#N)nc1)CC(=O)N2Cc1ccc(C(F)(F)F)cc1` [Compound 147, 8-(6-cyanopyridin-3-yl)-N-methyl-6,9-dioxo-5-(4-(trifluoromethyl)benzyl)-2,5,8-triazaspiro[3.5]-nonane-2-carboxamide], for which the “CDMF75 IC15” value amounted to 8.1 µM.

Take `CNC(=O)N1CC2(C1)C(=O)N(c1ccc(C(=O)OC)cc1)CC(=O)N2Cc1ccc(C(F)(F)F)cc1` [Compound 148, methyl 4-(2-(methylcarbamoyl)-6,9-dioxo-5-(4-(trifluoro-methyl)benzyl)-2,5,8-triazaspiro[3.5]nonan-8-yl)benzoate]: the “CDMF75 IC15” value was 2.3 µM. `CNC(=O)N1CC2(C1)C(=O)N(c1ccc(F)cc1)CC(=O)N2Cc1ccc(C(F)(F)F)cc1` [Compound 149, 8-(4-fluorophenyl)-N-methyl-6,9-dioxo-5-(4-(trifluoromethyl)benzyl)-2,5,8-triazaspiro[3.5]-nonane-2-carboxamide]: the “CDMF75 IC15” value was 8.9 µM. As for `CNC(=O)N1CC2(C1)C(=O)N(c1ccc(C(F)(F)F)cc1)CC(=O)N2Cc1ccc(C(F)(F)F)cc1` [Compound 151, N-methyl-6,9-dioxo-5-(4-(trifluoromethyl)benzyl)-8-(4-(trifluoromethyl)phenyl)-2,5,8-triazaspiro[3.5]nonane-2-carboxamide], the “CDMF75 IC15” value is 12.2 µM.

As to `CNC(=O)N1CC2(C1)C(=O)N(c1ccc(F)c(F)c1)CC(=O)N2Cc1ccc(C(F)(F)F)cc1` [Compound 152, 8-(3,4-difluorophenyl)-N-methyl-6,9-dioxo-5-(4-(trifluoromethyl)benzyl)-2,5,8-triazaspiro[3.5]nonane-2-carboxamide], the “CDMF75 IC15” value is 2.8 µM. For `CNC(=O)N1CC2(C1)C(=O)N(c1ccc(C)cc1)CC(=O)N2Cc1ccc(C(F)(F)F)cc1` [Compound 153, N-methyl-6,9-dioxo-8-(p-tolyl)-5-(4-(trifluoromethyl)benzyl)-2,5,8-triazaspiro[3.5]-nonane-2-carboxamide], the “CDMF75 IC15” value is 6.4 µM. For `CNC(=O)N1CC2(C1)C(=O)N(c1ccc(OC)nc1)CC(=O)N2Cc1ccc(C(F)(F)F)cc1` [Compound 154, 8-(6-methoxypyridin-3-yl)-N-methyl-6,9-dioxo-5-(4-(trifluoromethyl)benzyl)-2,5,8-triazaspiro[3.5]-nonane-2-carboxamide], the “CDMF75 IC15” value turned out to be 19.8 µM. For the compound `CNC(=O)N1CC2(C1)C(=O)N(c1ccc(Cl)c(F)c1)CC(=O)N2Cc1ccc(C(F)(F)F)cc1` [Compound 155, 8-(4-chloro-3-fluorophenyl)-N-methyl-6,9-dioxo-5-(4-(trifluoromethyl)benzyl)-2,5,8-triazaspiro[3.5]-nonane-2-carboxamide], the “CDMF75 IC15” value was 0.6 µM. `CNC(=O)N1CC2(C1)C(=O)N(c1ccc(Cl)cn1)CC(=O)N2Cc1ccc(C(F)(F)F)cc1` [Compound 156, 8-(5-chloropyridin-2-yl)-N-methyl-6,9-dioxo-5-(4-(trifluoromethyl)benzyl)-2,5,8-triazaspiro[3.5]-nonane-2-carboxamide]: the “CDMF75 IC15” value came to 7.1 µM. As for `CNC(=O)N1CC2(C1)C(=O)N(c1ccc(C(F)F)cc1)CC(=O)N2Cc1ccc(C(F)(F)F)cc1` [Compound 157, 8-(4-(difluoromethyl)-phenyl)-N-methyl-6,9-dioxo-5(4-(trifluoromethyl)-benzyl)-2,5,8-triazaspiro-[3.5]nonane-2-carboxamide], the “CDMF75 IC15” value came to 5.5 µM. With `CNC(=O)N1CC2(C1)C(=O)N(c1ccc(C3CC3)cc1)CC(=O)N2Cc1ccc(C(F)(F)F)cc1` [Compound 158, 8-(4-cyclopropylphenyl)-N-methyl-6,9-dioxo-5-(4-(trifluoromethyl)benzyl)-2,5,8-triazaspiro[3.5]-nonane-2-carboxamide], the “CDMF75 IC15” value is 9.7 µM. The result for `CNC(=O)N1CC2(C1)C(=O)N(c1ccc(OC(F)F)cc1)CC(=O)N2Cc1ccc(C(F)(F)F)cc1` [Compound 159, 8-(4-(difluoromethoxy)-phenyl)-N-methyl-6,9-dioxo-5-(4-(trifluoro-methyl)benzyl)-2,5,8-triazaspiro[3.5]nonane-2-carboxamide] reads 3.2 µM; that for `CNC(=O)N1CC2(C1)C(=O)N(c1ccc(OC(F)(F)F)cc1)CC(=O)N2Cc1ccc(C(F)(F)F)cc1` [Compound 160, N-methyl-6,9-dioxo-8-(4-(trifluoromethoxy)-phenyl)-5-(4-(trifluoromethyl)benzyl)-2,5,8-triazaspiro[3.5]-nonane-2-carboxamide], 7.1 µM; that for `C=C(C)c1ccc(N2CC(=O)N(Cc3ccc(C(F)(F)F)cc3)C3(CN(C(=O)NC)C3)C2=O)cc1` [Compound 161, N-methyl-6,9-dioxo-8-(4-(prop-1-en-2-yl)phenyl)-5-(4-(trifluoromethyl)benzyl)-2,5,8-triazaspiro[3.5]-nonane-2-carboxamide], 4.7 µM.
